Laboratory results as given in patent publication US20240216356A1, “TASTE MASKED COMPOSTIONS OF 2,4,6-TRIFLUORO-N-[6-(1-METHYL-PIPERIDINE-4-CARBONYL)-PYRIDIN-2-YL]-BENZAMIDE HEMISUCCINATE, AND ORALLY DISENTEGRATING TABLET COMPRISING THE SAME” (priority 2021, published 2024).
Values after ≈ are worked out from the molar mass of the structure shown.

What was measured:
[1] = Solubility of lasmiditan over the pH range of the oral cavity; format: physicochemical
Method: Lasmiditan is highly soluble (dissolves readily in the mouth) but extremely bitter in taste, and has other negative sensory attributes, that preclude conventional ODT development. […] The efficacious dose is from 25 to 200 mg depending on patient weight or other factors. […] Extreme bitterness, mouth numbing, and other negative sensory attributes are present and persist for 30 minutes.

[2] = current marketed immediate release tablets; cited from earlier work

What does the source list for `CN1CCC(C(=O)c2cccc(NC(=O)c3c(F)cc(F)cc3F)n2)CC1` [Lasmiditan, 2,4,6-trifluoro-N-[6-(1-methyl-piperidin-4-ylcarbonyl)-pyridin-2-yl]-benzamide]?
solubility ([1]; pH 5, aqueous buffer): 35 mg/mL (≈ 92.7 mM); solubility ([1]; pH 6.8, aqueous buffer): 9.8 mg/mL (≈ 26 mM); onset of action (time to symptom relief) [2]: about 2 hours
